Entries after “also recorded” stand apart in the source; their conditions may differ.
Assays:
souris mâle = conditions: in vivo
Protocol: (§1) On a résumé ci-après les résultats des essais neuropsychopharmacologiques qui ont été entrepris avec les produits préférés selon l'invention, le CRL 41 190 (Ex 1) et le CRL 41 214 (Ex 3). Dans ce résumé, les deux produits à tester mis en solution dans de l'eau distillée ont été administrés, sauf indiction contraire, par voie intrapéritonéale sous un volume de 20 ml/kg chez la souris mâle et sous un volume de 5 ml/kg chez le rat mâle. […]
La DL-0 (dose maximale non mortelle) du CRL 41 190 est supérieure à 128 mg/kg par voie I.P. chez la souris mâle, et la DL-30 est de l'ordre de 256 mg/kg.
Par voie I.P. chez la souris mâle, la DL-0 est supérieure à 256 mg/kg.

souris [1] = assay: Global behaviour and reactivities, mouse; assay type: in vivo; conditions: I.P.
Protocol: as §1
(§2) Des lots de trois animaux sont observés avant puis 0,25 h, 0,5, h, 1 h, 2 h, 3 h et 24 h après administration de CRL 41 190.

rat [2] = assay: Global behaviour and reactivities, rat; assay type: in vivo; conditions: I.P.
Protocol: as §1, §2

souris [3] = assay: Interaction with apomorphine, mouse; assay type: in vivo
Protocol: • 1°) chez la souris • Des lots de 6 souris reçoivent le produit à étudier 0,50 h avant une injection sous-cutanée de 1 mg/kg ou 16 mg/kg d'apomorphine.

rat [4] = assay: Interaction with apomorphine, rat; assay type: in vivo; conditions: product I.P. 0,50 h before s.c. 0,5 mg/kg apomorphine
rats = assay: Interaction with amphetamine (stereotypies), rat; assay type: in vivo; conditions: amphétamine 2 mg/kg I.P., doses de 4 mg/kg, 16 mg/kg et surtout 64 mg/kg
Protocol: L'amphétamine (2 mg/kg) est injectée par voie intrapéritonéale à des lots de 6 rats, une demi -heure après l'administration de CRL 41 190.

souris [5] = assay: Interaction with reserpine (hypothermia, ptosis), mouse; assay type: in vivo; conditions: réserpine 2,5 mg/kg I.P.
Protocol: Quatre heures après l'injection intrapéritonéale de 2,5 mg/kg de réserpine, des lots de 12 souris reçoivent le CRL 41 190. On étudie l'influence du produit à tester sur l'hypothermie et le ptôsis réserpiniques.

souris [6] = assay: Interaction with oxotremorine, mouse; assay type: in vivo; conditions: oxotrémorine 0,5 mg/kg I.P.
souris [7] = assay: Four-plate test, traction and electroshock, mouse; assay type: in vivo
Protocol: Le test est pratiqué sur des lots de 10 souris 0,50 h après l'administration du produit à étudier.

souris [8] = assay: Spontaneous motility (actimeter), mouse; assay type: in vivo; conditions: souris, I.P.; plus forte dose utilisée (128 mg/gk)
souris [9] = assay: Intergroup aggressiveness, mouse; assay type: in vivo; conditions: I.P., aux doses utilisées
Protocol: Après avoir séjourné pendant 3 semaines dans chacune des moitiés d'une cage séparées par une cloison opaque, des groupes de 3 souris reçoivent le CRL 41 190. Une demi-heure plus tard, les deux groupes d'une même cage sont réunis par retrait de la cloison et on note le nombre de combats qui surviennent en 10 minutes.

souris [10] = assay: Motility reduced by habituation to the enclosure, mouse; assay type: in vivo; conditions: I.P., plus forte dose utilisée (128 mg/kg)
souris [11] = assay: Asphyxic anoxia (gallamine triethiodide), mouse; assay type: in vivo; conditions: product I.P. half an hour before triiodoéthylate de gallamine 32 mg/kg I.P.
souris [12] = assay: Interaction with barbital (sleep duration), mouse; assay type: in vivo; conditions: barbital 220 mg/kg I.P., plus forte dose utilisée (128 mg/kg)
souris [13] = assay: Behavioural despair (forced immersion), mouse; assay type: in vivo; conditions: I.P., doses de 32 et 128 mg/kg
From the text: On note la durée totale d'immobilité entre la 2ème et la 6ème minutes suivant l'immersion.

l'homme = assay: Clinical treatment of depression, oral administration; assay type: in vivo
souris [14] = conditions: I.P., plus forte dose utilisée (128 mg/kg)
chiens [15] = assay: Cardiovascular tests in dogs, intraduodenal successive doses; assay type: in vivo, chien
Protocol: a) Quatre chiens (poids moyen : 13,8 kg) anesthésiés au nembutal reçoivent le CRL 41 250 par voie intraduodénale, aux doses successives de 0,1 mg/kg, 0,5 mg/kg, 1 mg/kg, 2,5 mg/kg, 5 mg/kg puis 10 mg/kg. On mesure la pression artérielle, la fréquence cardiaque, le débit artériel fémoral, le débit artériel vertébral, la température rectale et on observe la coloration de la peau.
a) Deux chiens (poids moyen : 14,5 kg) reçoivent le CRL 41 252 par voie intraduodénale, aux doses successives de 0,1 mg/kg, 0,5 mg/kg, 1 mg/kg, 2,5 mg/kg, 5 mg/kg, 10 mg/kg et 20 mg/kg. On mesure la pression artérielle, la fréquence cardiaque, le débit artériel fémoral, le débit artériel vertébral, les températures rectale et cutanée et on observe la coloration de la peau.

chiens [16] = assay: Influence on isoprenaline effects, dog; assay type: in vivo; conditions: chien, after dose cumulée 19,1 mg/kg I.D.
From the text: (§3) b) Sur les mêmes chiens on a étudié l'influence du produit vis à vis de l'isoprénaline et de la noradrénaline.
Avec 10,pg/kg I.V. d'isoprénaline la pression artérielle diastolique du CRL 41 252 passe de 128 à […] ([…] à 6,4 x 10^3 Pa), […]

chiens [17] = assay: Influence on noradrenaline hypertension, dog; assay type: in vivo; conditions: chien
Protocol: as §3
L'hyptertension à la noradrénaline (2 µg/kg I.V.) est augmentée par le CRL 41 252 ([…]), la pression artérielle systolique passe de 208 à 352 mmHg (soit environ de 2,77 x 10^4 à 4,7 x 10^4Pa) au lieu de 204 à 328 mmHg (soit environ de 2,71 à 4,3 x 10 Pa).

[18] = tested on: système nerveux central (SNC); assay: General statement of CNS (antidepressant, sedative) properties; assay type: in vivo
chiens [19] = assay: Influence on isoprenaline effects, dog; assay type: in vivo; conditions: chien, isoprénaline 10 µg/kg I.V., dose cumulée de 19,1 mg/kg I.D.
[20] = dès la dose de 8 mg/kg, mais surtout aux doses de 32 mg/kg et 128 mg/kg
[21] = souris, 0,50 h after I.P. administration

CC(C)(C)NCC(SCC(=O)NO)c1ccccc1 (racemic) [CRL 41 214, chlorhydratede l'acide [α-(tertiobutyl-aminométhyl)-benzyl]-thioacétohydroxamique]
signs observed at high doses (souris mâle): une sédation et une dyspnée | DL-0 (dose maximale non mortelle) (souris mâle; mouse, ip): > 256 mg/kg | comportement global et réactivités (souris [1]; dose de 128 mg/kg): une mydriase modérée | comportement global et réactivités (souris [1]; doses de 2 à 32 mg/kg): aucune modification nette du comportement et des réactivités | comportement global et réactivités (rat [2]; dose de 16 mg/kg): une mydriase d'une durée de 2 h qui est maximale 0,5 h après administration | comportement global et réactivités (rat [2]; dose de 64 mg/kg): une diminution de la fréquence respiratoire pendant 0,5 h et une mydriase d'une durée de 3 h qui est maximale 1 h après administration | comportement global et réactivités (rat [2]; doses de 1 et 4 mg/kg): aucune modification nette du comportement, des réactivités, de la température rectale et du diamètre pupillaire par rapport au lot témoin | hypothermie induite par l'apomorphine (souris [3]; I.P., dès la dose de 2 mg/kg, mais surtout aux doses de 32 mg/kg à 128 mg/kg): antagonise l'hypothermie induite par l'apomorphine | comportements de verticalisation et stéréotypies (apomorphine) (souris [3]; product I.P. 0,50 h before s.c. apomorphine): ne sont pratiquement pas modifiés | stéréotypies induites par l'apomorphine (rat [4]): laisse inchangées les stéréotypies induites par l'apomorphine | stéréotypies amphétaminiques (rats): potentialise nettement les stéréotypies amphétaminiques | ptôsis réserpinique (souris [5]; doses 8 to 128 mg/kg): sans modifier le ptôsis | hypothermie réserpinique (souris [5]; [20]): antagonise l'hypothermie réserpinique | signes de stimulation cholinergique périphérique dûs à l'oxotrémorine (souris [6]; all doses used): ne modifie pratiquement pas les signes de stimulation cholinergique périphérique dûs à l'oxotrémorine | intensité des tremblements dus à l'oxotrémorine (souris [6]; doses de 32 mg/kg et 128 mg/kg): diminue faiblement l'intensité des tremblements dus à l'oxotrémorine | hypothermie induite par l'oxotrémorine (souris [6]; [20]): s'oppose à l'hypothermie induite par l'oxotrémorine | effets convulsivants de l'électrochoc (souris [7]; [21]): ne modifie pratiquement pas les effets convulsivants | incapacité motrice (traction) (souris [7]; [21]): ne provoque pas d'incapacité motrice majeure | nombre de passages punis (test des quatre plaques) (souris [7]; [21]): n'entraîne pas d'augmentation nette du nombre de passages punis | effets létaux de l'électrochoc (souris [7]; souris, I.P., dose de 128 mg/kg): aggrave, à la dose de 128 mg/kg, les effets létaux de l'électrochoc | activité motrice spontanée (souris [8]): augmente nettement l'activité motrice spontanée de la souris | nombre de combats (souris [9]): ne modifie pratiquement pas le nombre de combats | reprise d'activité motrice chez la souris habituée à son enceinte (souris [10]): entraîne une reprise nette d'activité motrice chez la souris habituée à son enceinte | délai d'apparition des convulsions et de la mort consécutives à une anoxie asphyxique (souris [11]): diminue très modérément le délai d'apparition des convulsions et de la mort | durée du sommeil barbiturique (souris [12]): diminue nettement la durée du sommeil barbiturique | durée de l'immobilité de la souris placée en immersion forcée (souris [13]): diminue très modérément la durée de l'immobilité de la souris placée en immersion forcée | traitement des dépressions chez l'homme (l'homme; administration orale, gélules ou comprimés 25 mg ou 50 mg, 1 à 2 prises par jour, deux à trois semaines): bons résultats | propriétés antidépressives chez les personnes agées (l'homme; clinical, oral): se manifestaient de façon très bénéfique chez les personnes agées | récupération motrice après anoxie hypobare aigue (souris [14]): semble entraîner une amélioration très modérée de la récupération motrice

CC(SC(CNC(C)(C)C)c1ccccc1)C(N)=O (stereo not drawn) [CRL 41 250, fumaratede 2-{[α-(tertiobutylaminomethyl)-benzyl]-thio}-propionamide]
débit fémoral (chiens [15]; chien anesthésié (nembutal), dose de 19,1 mg/kg I.D.): augmente le débit fémoral | fréquence cardiaque (chiens [15]; chien anesthésié, dose de 1 mg/kg I.D.): provoque une légère bradycardie | pression artérielle (chiens [15]; chien anesthésié, successive I.D. doses 0,1 to 10 mg/kg): aucun effet sur la pression artérielle | effets vasodilatateurs (propriétés cardiovasculaires) (chiens [15]; general statement): effets vasodilatateurs intéressants; also recorded: effets vasodilatateurs bénéfiques | pression artérielle diastolique, before isoprénaline (chiens [16]; control 151): 148 mmHg | fréquence cardiaque, before isoprénaline (chiens [16]; control 180): 175 battements/minute | pression artérielle diastolique, after isoprénaline (chiens [16]; isoprénaline 10 µg/kg I.V., control 43): 47 mmHg | fréquence cardiaque, after isoprénaline (chiens [16]; isoprénaline 10 µg/kg I.V., control 271): 265 battements/minute | pression artérielle systolique, before noradrénaline (chiens [17]; after dose cumulée 19,1 mg/kg I.D., control 204): 191 mmHg | pression artérielle systolique, after noradrénaline (chiens [17]; noradrénaline 2 µg/kg I.V., after dose cumulée 19,1 mg/kg I.D., control 304): 330 mmHg | hypertension à la noradrénaline (chiens [17]; noradrénaline 2 µg/kg I.V., dose cumulée de 19,1 mg/kg I.D.): légèrement augmentée | propriétés antidépressives et sédatives [18]: propriétés antidépressives et sédatives | effect on isoprénaline response (pression artérielle diastolique, fréquence cardiaque) (chiens [19]): ne modifie pas la pression artérielle diastolique ni la fréquence cardiaque
